Assay results published in PubChem BioAssay AID192 (DTP/NCI, 2004).
Values joined by “and” are separate entries in the source; they are usually repeats but may differ in a detail not shown here. Equal values may be shown once. Inconclusive results and toxic doses are left out.

System: BDF1 mice, B16 melanoma ip, median survival T/C
Assay: NCI In Vivo Anticancer Drug Screen. Data for tumor model B16 Melanoma (intraperitoneal) in B6D2F1 (BDF1) mice
Conditions: endpoint: median survival time, higher = longer survival
Method in brief: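 The ratio T/C compares compound-treated mice with vehicle-treated controls, using survival or tumor size as the endpoint in a transplantable tumor model.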

[1] = dose: 100.0 mg/kg/injection, schedule: Q04DX003 (ip), vehicle: Klucel (hydroxypropylcellulose) (HPC)
[2] = dose: 75.0 mg/kg/injection, schedule: Q01DX009 (ip), vehicle: Klucel (hydroxypropylcellulose) (HPC)
[3] = dose: 12.5 mg/kg/injection, schedule: Q01DX009 (ip), vehicle: Klucel (hydroxypropylcellulose) (HPC)
[4] = dose: 25.0 mg/kg/injection, schedule: Q01DX009 (ip), vehicle: saline with Tween-80
[5] = dose: 100.0 mg/kg/injection, schedule: Q01DX009 (ip), vehicle: saline with Tween-80
[6] = dose: 100.0 mg/kg/injection, schedule: Q01DX009 (ip), vehicle: Klucel (hydroxypropylcellulose) (HPC)
[7] = dose: 200.0 mg/kg/injection, schedule: Q01DX009 (ip), vehicle: Klucel (hydroxypropylcellulose) (HPC)
[8] = dose: 400.0 mg/kg/injection, schedule: Q01DX009 (ip), vehicle: Klucel (hydroxypropylcellulose) (HPC)
[9] = dose: 12.5 mg/kg/injection, schedule: Q01DX009 (ip), vehicle: saline
[10] = dose: 25.0 mg/kg/injection, schedule: Q01DX009 (ip), vehicle: saline

In the case of `Cc1ccc(S(=O)(=O)N(Cc2cccc(CN(S(=O)(=O)c3ccc(C)cc3)S(=O)(=O)c3ccc(C)cc3)c2)S(=O)(=O)c2ccc(C)cc2)cc1`, the T/C [1] is reported as 87 % of control.
With `CCOC(=O)C(NC(=O)NC)C(=O)OCC` the T/C [2] was 102 % of control, the T/C (dose: 150.0 mg/kg/injection, schedule: Q01DX009 (ip), vehicle: Klucel (hydroxypropylcellulose) (HPC)) was 103 % of control and the T/C (dose: 300.0 mg/kg/injection, schedule: Q01DX009 (ip), vehicle: Klucel (hydroxypropylcellulose) (HPC)) was 100 % of control.
`CCOC(=O)C(CC(C)C)NC(=O)C(Cc1ccc(N(CCCl)CCCl)cc1)NC(C)=O` (centres undefined) was tested, and the T/C (dose: 1.0 mg/kg/injection, schedule: Q01DX009 (ip), vehicle: saline with Tween-80) was 106 % of control, the T/C (dose: 2.0 mg/kg/injection, schedule: Q01DX009 (ip), vehicle: saline with Tween-80) was 113 % of control and the T/C (dose: 4.0 mg/kg/injection, schedule: Q01DX009 (ip), vehicle: saline with Tween-80) was 106 % of control. The T/C (dose: 8.0 mg/kg/injection, schedule: Q01DX009 (ip), vehicle: saline with Tween-80) was 119 % of control, the T/C (dose: 8.0 mg/kg/injection, schedule: Q01DX009 (ip), vehicle: saline) was 105 % of control and the T/C (dose: 16.0 mg/kg/injection, schedule: Q01DX009 (ip), vehicle: saline) was 116 % of control.
`COc1ccc2c(c1)C(=O)CCN2` was tested, and the T/C [1] was 114 % of control, the T/C (dose: 200.0 mg/kg/injection, schedule: Q04DX003 (ip), vehicle: Klucel (hydroxypropylcellulose) (HPC)) was 107 % of control and the T/C (dose: 400.0 mg/kg/injection, schedule: Q04DX003 (ip), vehicle: Klucel (hydroxypropylcellulose) (HPC)) was 99 % of control.
With `CCC/C=C(/CC(=O)O)C(=O)O` the T/C (dose: 75.0 mg/kg/injection, schedule: Q04DX003 (ip), vehicle: saline with Tween-80) was 100 % of control.
In the case of `CC1(c2ccc(N(CCCl)CCCl)cc2)NC(=O)NC1=O` (centres undefined), the T/C (dose: 2.5 mg/kg/injection, schedule: Q01DX009 (ip), vehicle: Klucel (hydroxypropylcellulose) (HPC)) is reported as 104 % of control, the T/C (dose: 5.0 mg/kg/injection, schedule: Q01DX009 (ip), vehicle: Klucel (hydroxypropylcellulose) (HPC)) is reported as 94 % of control and 111 % of control and the T/C (dose: 18.75 mg/kg/injection, schedule: Q01DX009 (ip), vehicle: Klucel (hydroxypropylcellulose) (HPC)) is reported as 119 % of control. For the same compound, the T/C (dose: 20.0 mg/kg/injection, schedule: Q01DX009 (ip), vehicle: Klucel (hydroxypropylcellulose) (HPC)) was 120 % of control and 123 % of control, the T/C (dose: 37.5 mg/kg/injection, schedule: Q01DX009 (ip), vehicle: Klucel (hydroxypropylcellulose) (HPC)) was 102 % of control and the T/C (dose: 40.0 mg/kg/injection, schedule: Q01DX009 (ip), vehicle: Klucel (hydroxypropylcellulose) (HPC)) was 157 % of control and 161 % of control. For the same compound, the T/C [2] was 90 % of control.
In the case of `CN(C)S(=O)(=O)c1ccc2c(c1)N(CCCN1CCN(S(C)(=O)=O)CC1)c1ccccc1S2`, the T/C (dose: 0.78 mg/kg/injection, schedule: Q01DX009 (ip), vehicle: Klucel (hydroxypropylcellulose) (HPC)) is reported as 87 % of control, the T/C (dose: 1.56 mg/kg/injection, schedule: Q01DX009 (ip), vehicle: Klucel (hydroxypropylcellulose) (HPC)) is reported as 90 % of control and the T/C (dose: 3.12 mg/kg/injection, schedule: Q01DX009 (ip), vehicle: Klucel (hydroxypropylcellulose) (HPC)) is reported as 90 % of control. The T/C [3] was 95 % of control.
In the case of `CC(C)N(CCCC#N)C(C)C`, the T/C [4] is reported as 91 % of control, the T/C (dose: 50.0 mg/kg/injection, schedule: Q01DX009 (ip), vehicle: saline with Tween-80) is reported as 102 % of control and the T/C [5] is reported as 100 % of control.
For `Clc1ccc2c(c1)-c1ccccc1C1=NCCN12`, the T/C (dose: 5.0 mg/kg/injection, schedule: Q01DX009 (ip), vehicle: saline) was 108 % of control and the T/C (dose: 10.0 mg/kg/injection, schedule: Q01DX009 (ip), vehicle: saline) was 118 % of control.
In the case of `c1ccc2[nH]c(/N=N/c3nc4ccccc4[nH]3)nc2c1`, the T/C [6] is reported as 102 % of control, the T/C [7] is reported as 102 % of control and the T/C [8] is reported as 91 % of control.
For `CC(=O)NC(Cc1ccc(N(CCCl)CCCl)cc1)C(=O)O` (centres undefined), the T/C (dose: 3.13 mg/kg/injection, schedule: Q01DX009 (ip), vehicle: saline with Tween-80) was 109 % of control, the T/C (dose: 6.25 mg/kg/injection, schedule: Q01DX009 (ip), vehicle: saline with Tween-80) was 117 % of control and the T/C [4] was 113 % of control.
For `N#CCCN(CCC#N)c1ccc(C=O)cc1`, the T/C [6] was 104 % of control, the T/C [7] was 98 % of control and the T/C [8] was 102 % of control.
With `NC(=S)N/N=C/c1ccc(O)cn1` the T/C (dose: 9.4 mg/kg/injection, schedule: Q01DX009 (ip), vehicle: saline with Tween-80) was 103 % of control, the T/C [9] was 108 % of control and the T/C (dose: 18.8 mg/kg/injection, schedule: Q01DX009 (ip), vehicle: saline with Tween-80) was 102 % of control and 119 % of control and 121 % of control. For the same compound, the T/C [10] was 110 % of control, the T/C (dose: 37.5 mg/kg/injection, schedule: Q01DX009 (ip), vehicle: saline with Tween-80) was 109 % of control and 111 % of control and 120 % of control and the T/C (dose: 50.0 mg/kg/injection, schedule: Q01DX009 (ip), vehicle: saline) was 113 % of control and 122 % of control. The T/C (dose: 75.0 mg/kg/injection, schedule: Q01DX009 (ip), vehicle: saline with Tween-80) was 114 % of control and 121 % of control and 124 % of control, the T/C (dose: 100.0 mg/kg/injection, schedule: Q01DX009 (ip), vehicle: saline) was 115 % of control and 120 % of control and the T/C (dose: 150.0 mg/kg/injection, schedule: Q01DX009 (ip), vehicle: saline with Tween-80) was 105 % of control and 115 % of control.
In the case of `CN1CCN(CCCN2c3ccccc3Sc3ccc(C(F)(F)F)cc32)CC1`, the T/C (dose: 0.58 mg/kg/injection, schedule: Q01DX009 (ip), vehicle: saline) is reported as 117 % of control, the T/C (dose: 0.78 mg/kg/injection, schedule: Q01DX009 (ip), vehicle: saline) is reported as 102 % of control and the T/C (dose: 1.17 mg/kg/injection, schedule: Q01DX009 (ip), vehicle: saline) is reported as 112 % of control. The T/C (dose: 1.56 mg/kg/injection, schedule: Q01DX009 (ip), vehicle: saline) was 102 % of control, the T/C (dose: 2.34 mg/kg/injection, schedule: Q01DX009 (ip), vehicle: saline) was 112 % of control and the T/C (dose: 3.12 mg/kg/injection, schedule: Q01DX009 (ip), vehicle: saline) was 112 % of control and 110 % of control. The T/C (dose: 4.68 mg/kg/injection, schedule: Q01DX009 (ip), vehicle: saline) was 97 % of control, the T/C (dose: 6.25 mg/kg/injection, schedule: Q01DX009 (ip), vehicle: saline) was 102 % of control and 95 % of control and the T/C (dose: 9.37 mg/kg/injection, schedule: Q01DX009 (ip), vehicle: saline) was 115 % of control. The T/C [9] was 105 % of control and 102 % of control and the T/C [10] was 102 % of control.
In the case of `COCc1cc(C(C)(C)C)c(O)c(C(C)(C)C)c1`, the T/C [6] is reported as 90 % of control, the T/C [7] is reported as 92 % of control and the T/C [8] is reported as 95 % of control.
For `CC1(C)C2CCC([CH2][Hg][Cl])C1C2` (centres undefined), the T/C (dose: 2.5 mg/kg/injection, schedule: Q01DX009 (ip), vehicle: saline with Tween-80) was 87 % of control, the T/C (dose: 5.0 mg/kg/injection, schedule: Q01DX009 (ip), vehicle: saline with Tween-80) was 103 % of control and the T/C (dose: 10.0 mg/kg/injection, schedule: Q01DX009 (ip), vehicle: saline with Tween-80) was 87 % of control. For the same compound, the T/C (dose: 20.0 mg/kg/injection, schedule: Q01DX009 (ip), vehicle: saline with Tween-80) was 96 % of control.
In the case of `COc1ccc(Br)cc1/C=N\NS(=O)(=O)c1ccc(C)cc1`, the T/C [6] is reported as 94 % of control, the T/C [5] is reported as 90 % of control and the T/C [7] is reported as 110 % of control. For the same compound, the T/C (dose: 200.0 mg/kg/injection, schedule: Q01DX009 (ip), vehicle: saline with Tween-80) was 95 % of control and the T/C [8] was 100 % of control.
For `O=C(Nc1ccccc1O)/C(Cl)=C/Cl`, the T/C [3] was 92 % of control, the T/C (dose: 25.0 mg/kg/injection, schedule: Q01DX009 (ip), vehicle: Klucel (hydroxypropylcellulose) (HPC)) was 93 % of control and the T/C (dose: 50.0 mg/kg/injection, schedule: Q01DX009 (ip), vehicle: Klucel (hydroxypropylcellulose) (HPC)) was 90 % of control.
In the case of `O=C(O)C1OC1C(=O)O` (centres undefined), the T/C (dose: 75.0 mg/kg/injection, schedule: Q01DX009 (ip), vehicle: saline) is reported as 120 % of control and the T/C (dose: 300.0 mg/kg/injection, schedule: Q01DX009 (ip), vehicle: saline) is reported as 118 % of control.
In the case of `Cc1sc2ccc(Cl)cc2[n+]1CCC(=O)O`, the T/C (dose: 100.0 mg/kg/injection, schedule: Q04DX003 (ip), vehicle: saline with Tween-80) is reported as 105 % of control, the T/C (dose: 200.0 mg/kg/injection, schedule: Q04DX003 (ip), vehicle: saline with Tween-80) is reported as 107 % of control and the T/C (dose: 400.0 mg/kg/injection, schedule: Q04DX003 (ip), vehicle: saline with Tween-80) is reported as 105 % of control.
